We go through 21 compounds from patent US20240158383A1, “RIBONUCLEOTIDE REDUCTASE (RNR) INHIBITORS AND USES THEREOF” (Boundless Bio, Inc., priority 2021, published 2024).

In assay [1] the target is RNR (RNR1:RNR2) (Homo sapiens (Human), UniProt P23921+P31350). In words: RNR enzyme activity, rapid-fire mass spectrometry (RFMS) assay. The assay is classed as biochemical. The following applies: [RNR] 50 nM, 1:1 RNR1:RNR2, [CDP] 5 μM, [ATP] 1 mM, 37° C., 45 min. On the procedure:
A rapid-fire mass spectrometry (RFMS) assay was used to assess RNR enzyme activity using a 384 well plate and a robotic platform.
The plate layout included two validated reference compounds (Triapine (3-AP) and Hydroxyurea (HU)): • A dose response in duplicate; top concentration: 5 μM (3-AP) and 250 μM (HU), semi-log • dilutions. • Spike wells in triplicate randomly spotted at four concentrations: • 250 μM, 100 μM, 30 μM and 2 μM for HU • 5 μM, 2 μM, 0.6 μM and 0.04 μM for 3-AP
First, the multidrop pipes were saturated for 30 minutes with enzymatic solution. Then 30 μL of Stop solution was distributed in column 24. Next, 15 μL of enzyme was distributed in column 1 to 24. Next, a pre-incubation step of 15 minutes at room temperature occurred, followed by distribution of 15 μL of substrate solution (column 1 to 24). Next, the plate was incubated for 45 minutes at 37° C. 30 μL of Stop solution was distributed to columns 1 to 23.
The final parameters for the enzyme reactions were: • Incubation: 37° C., 45 min • [CDP]: 5 μM; [ATP]: 1 mM; [NADPH]: No • [RNR]final: 50 nM with 1:1 (RNR1:RNR2) ratio • Final volume: 30 μL • Stop solution: 6% HCOOH containing 2 μM of 15
The compounds were screened at concentrations from 10 nM to 30 μM.

Assay [2] relates to pCHK1 (S345) in Colo320 DM cells. In words: CHK1 cellular activity (phospho-CHK1 AlphaLisa). It counts as cell-based, human. The following applies: compound overnight (approximately 16 hours). On the procedure: Phospho-CHK1 cellular activity was measured as a marker of replication stress which is a consequence of RNR inhibition.
Colo320 DM cells (ATCC #CCL-220, derived from human colorectal adenocarcinoma, Dukes' type C) were seeded on a 96-well cell culture treated assay plate at a density of 50,000 cells/well in 200 μL of RPMI-1640 media supplemented with 10% Fetal Bovine Serum and incubated at 37 degrees Celsius overnight. The following day, test compound dilutions were added directly to the plated cells by a Tecan digital dispenser to a final DMSO concentration of <0.5% and incubated at 37 degrees Celsius overnight (approximately 16 hours). The following day all culture media is removed from the cells. 75 μL of 1× AlphaLisa lysis buffer is added to each well and plates are agitated on a shaker for 30 minutes at room temperature. The lysis of cells and detection of pCHK1 (S345) are performed with reagents contained within the AlphaLisa Sure Fire assay kit (Perkin Elmer #ALSU-PCHK1-A) according to the manufacturer's instructions. 10 μL of each lysate was then transferred to a white, 384-well assay plate (Perkin Elmer #6008280). 5 μL of Acceptor mix was then added to each well of lysate in the white, 384-well assay plate and incubated in the dark at room temperature for 60 minutes. 5 μL of Donor mix was then added to each well of the white, 384-well assay plate in subdued light and incubated at room temperature for 60 minutes. Plates are read on an Alpha Technology-compatible plate reader using standard AlphaLisa settings.
For orientation: Bead proximity is the source of the signal in Alpha formats.

Chain of RNR (RNR1:RNR2) (P23921 whole entry): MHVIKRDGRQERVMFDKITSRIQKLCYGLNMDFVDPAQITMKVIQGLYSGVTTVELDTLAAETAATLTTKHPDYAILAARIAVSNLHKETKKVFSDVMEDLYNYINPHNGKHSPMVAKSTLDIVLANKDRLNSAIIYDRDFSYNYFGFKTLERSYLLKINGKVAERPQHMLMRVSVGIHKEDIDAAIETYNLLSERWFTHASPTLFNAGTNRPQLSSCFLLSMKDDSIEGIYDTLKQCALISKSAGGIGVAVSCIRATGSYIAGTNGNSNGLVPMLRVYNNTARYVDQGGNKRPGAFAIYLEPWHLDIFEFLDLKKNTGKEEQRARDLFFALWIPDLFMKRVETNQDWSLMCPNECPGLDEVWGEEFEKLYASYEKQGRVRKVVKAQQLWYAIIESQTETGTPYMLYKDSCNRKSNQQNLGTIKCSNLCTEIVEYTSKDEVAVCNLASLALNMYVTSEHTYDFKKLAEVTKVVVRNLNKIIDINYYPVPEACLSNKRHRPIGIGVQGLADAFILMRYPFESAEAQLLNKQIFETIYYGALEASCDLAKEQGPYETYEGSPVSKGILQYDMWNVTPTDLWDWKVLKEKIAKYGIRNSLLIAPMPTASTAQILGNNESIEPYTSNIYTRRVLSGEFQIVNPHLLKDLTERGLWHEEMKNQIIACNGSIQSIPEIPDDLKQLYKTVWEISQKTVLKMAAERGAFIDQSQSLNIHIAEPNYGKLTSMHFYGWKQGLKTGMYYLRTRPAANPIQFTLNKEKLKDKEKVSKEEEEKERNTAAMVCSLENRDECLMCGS
Chain of RNR (RNR1:RNR2) (P31350 whole entry): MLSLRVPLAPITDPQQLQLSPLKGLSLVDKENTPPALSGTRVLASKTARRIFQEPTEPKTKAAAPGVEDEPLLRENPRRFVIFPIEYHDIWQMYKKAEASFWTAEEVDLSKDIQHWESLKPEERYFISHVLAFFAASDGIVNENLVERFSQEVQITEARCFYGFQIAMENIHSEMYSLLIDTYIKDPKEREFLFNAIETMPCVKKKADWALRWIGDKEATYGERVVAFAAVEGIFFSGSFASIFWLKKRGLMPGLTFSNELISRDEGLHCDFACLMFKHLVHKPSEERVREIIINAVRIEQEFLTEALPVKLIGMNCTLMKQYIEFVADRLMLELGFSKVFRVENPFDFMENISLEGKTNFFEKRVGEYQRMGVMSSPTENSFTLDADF

Turning to `Cc1ccc(F)c([C@@H](C)[C@H](NS(=O)(=O)c2ccc(Cl)cc2C#N)c2nn[nH]n2)c1C` [Example 5, 4-chloro-2-cyano-N-((1S2R)-2-(6-fluoro-2,3-dimethylphenyl)-1-(2H-tetrazol-5-yl)propyl)benzenesulfonamide], the IC50 was 0.1 to 1 µM in assay [1] and 50 to 100 µM in assay [2] (Homo sapiens, COLO 320DM, 16 h).

In the case of `Cc1ccc(F)c([C@@H](C)[C@H](NS(=O)(=O)c2ccc(Cl)c3c2OCC[C@@]3(C)O)c2nn[nH]n2)c1C` [Example 7, 5-((1S,2R)-1-(((R)-5-chloro-4-hydroxy-4-methylchromane)-8-sulfonamido)-2-(6-fluoro-2,3-dimethylphenyl)propyl)tetrazol-2-ide], the IC50 in assay [1] was not above 0.1 µM; in assay [2], 30 to 50 µM.

For the compound `Cc1ccc(F)c([C@@H](C)[C@H](NS(=O)(=O)C2CCCCC2)c2nn[nH]n2)c1C` [Example 8, N-((1S,4S)-2-(6-fluoro-2,3-dimethylphenyl)-1-(2H-tetraozl-5-yl)propyl)cyclohexanesulfonamide], the IC50 in assay [1] lay in the range of 1 to 5 µM; in assay [2] (Homo sapiens, COLO 320DM, 16 h), 50 to 100 µM.

In the case of `Cc1ccc(F)c([C@@H](C)[C@H](NS(=O)(=O)c2ccc(Cl)c3c2OCCC3=O)c2nn[nH]n2)c1C` [Example 9, 5-chloro-N-((1S,2R)-2-(6-fluoro-2,3-dimethylphenyl)-1-(2H-tetrazol-5-yl)propyl)-4-oxochromane-8-sulfonamide], the IC50 in assay [1] was not above 0.1 µM; in assay [2] (Homo sapiens, COLO 320DM, 16 h), 50 to 100 µM.

Consider `Cc1ccc(F)c([C@@H](C)[C@H](NS(=O)(=O)c2ccc(Cl)c3c2OCC[C@@H]3O)c2nn[nH]n2)c1C` [Example 10, (S)-5-chloro-N-((1S,2R)-2-(6-fluoro-2,3-dimethylphenyl)-1-(2H-tetrazol-5-yl)propyl)-4-hydroxychromane-8-sulfonamide], for which the IC50 in assay [1] is not above 0.1 µM; in assay [2] (Homo sapiens, COLO 320DM, 16 h), 50 to 100 µM.

In the case of `Cc1ccc(F)c([C@@H](C)[C@H](NS(=O)(=O)c2ccc(Cl)c3c2OCC[C@H]3O)c2nn[nH]n2)c1C` [Example 11, (R)-5-chloro-N-((1S,2R)-2-(6-fluoro-2,3-dimethylphenyl)-1-(2H-tetrazol-5-yl)propyl)-4-hydroxychromane-8-sulfonamide], the IC50 in assay [1] is not above 0.1 µM; in assay [2] (Homo sapiens, COLO 320DM, 16 h) it was 50 to 100 µM.

For the compound `[2H]C([2H])([2H])[C@@]1(O)CCOc2c(S(=O)(=O)N[C@H](c3nn[nH]n3)[C@H](C)c3c(F)ccc(C)c3C)ccc(Cl)c21` [Example 12, (R)-5-chloro-N-((1S,2R)-2-(6-fluoro-2,3-dimethylphenyl)-1-(2H-tetrazol-5-yl)propyl)-4-hydroxy-4-(methyl-d3)chromane-8-sulfonamide], the IC50 in assay [1] was not above 0.1 µM; in assay [2] (Homo sapiens, COLO 320DM, 16 h), 10 to 30 µM.

Consider `Cc1ccc(F)c([C@@H](C)[C@H](NS(=O)(=O)c2ccc(Cl)cc2CC(=O)O)c2nn[nH]n2)c1C` [Example 18, 2-(5-chloro-2-(N-((1S,2R)-2-(6-fluoro-2,3-dimethylphenyl)-1-(2H-tetrazol-5-yl)propyl)sulfamoyl)phenyl)acetic acid], for which the IC50 in assay [1] was not above 0.1 µM; in assay [2] (Homo sapiens, COLO 320DM, 16 h) it was 50 to 100 µM.

Turning to `Cc1ccc(F)c([C@@H](C)[C@H](NS(=O)(=O)c2ccc(Cl)cc2F)c2nn[nH]n2)c1C` [Example 19, 4-chloro-2-fluoro-N-((1S,2R)-2-(6-fluoro-2,3-dimethylphenyl)-1-(2H-tetrazol-5-yl)propyl)benzenesulfonamide], the IC50 in assay [1] lay in the range of 0.1 to 1 µM; in assay [2] (Homo sapiens, COLO 320DM, 16 h), 10 to 30 µM.

Take `CCc1cc(Cl)ccc1S(=O)(=O)N[C@H](c1nn[nH]n1)[C@H](C)c1c(F)ccc(C)c1C` [Example 20, 4-chloro-2-ethyl-N-((1S,2R)-2-(6-fluoro-2,3-dimethylphenyl)-1-(2H-tetrazol-5-yl)propyl)benzenesulfonamide]: the IC50 lay within 0.1 to 1 µM in assay [1] and 30 to 50 µM in assay [2] (Homo sapiens, COLO 320DM, 16 h).

With `Cc1ccc(F)c([C@@H](C)[C@H](NS(=O)(=O)c2ccc(Cl)cc2C(F)(F)F)c2nn[nH]n2)c1C` [Example 21, 4-chloro-N-((1S,2R)-2-(6-fluoro-2,3-dimethylphenyl)-1-(2H-tetrazol-5-yl)propyl)-2-(trifluoromethyl)benzenesulfonamide], the IC50 in assay [1] was in the range of 0.1 to 1 µM; in assay [2] (Homo sapiens, COLO 320DM, 16 h), 50 to 100 µM.

`Cc1ccc(F)c([C@@H](C)[C@H](NS(=O)(=O)c2ccc(Cl)cc2CC(=O)N(C)C)c2nn[nH]n2)c1C` [Example 22, 2-(5-chloro-2-(N-((1S,2R)-2-(6-fluoro-2,3-dimethylphenyl)-1-(2H-tetrazol-5-yl)propyl)sulfamoyl)phenyl)-N,N-dimethylacetamide]: the concentration for half-maximal inhibition (IC50) in assay [1] fell in the range of 0.1 to 1 µM; in assay [2] (Homo sapiens, COLO 320DM, 16 h) it was 30 to 50 µM.

For `Cc1ccc(F)c([C@@H](C)[C@H](NS(=O)(=O)c2ccc(Cl)cc2CC(N)=O)c2nn[nH]n2)c1C` [Example 23, 2-(5-chloro-2-(N-((1S,2R)-2-(6-fluoro-2,3-dimethylphenyl)-1-(2H-tetrazol-5-yl)propyl)sulfamoyl)phenyl)acetamide], the IC50 in assay [1] is 0.1 to 1 µM; in assay [2] (Homo sapiens, COLO 320DM, 16 h), 50 to 100 µM.

Consider `Cc1ccc(F)c([C@@H](C)[C@H](NS(=O)(=O)c2ccc(Cl)cc2CC(=O)N2CCCCC2)c2nn[nH]n2)c1C` [Example 24, 4-chloro-N-((1S,2R)-2-(6-fluoro-2,3-dimethylphenyl)-1-(2H-tetrazol-5-yl)propyl)-2-(2-oxo-2-(piperidin-1-yl)ethyl)benzenesulfonamide], for which the IC50 in assay [1] lay in the range of 0.1 to 1 µM; in assay [2] (Homo sapiens, COLO 320DM, 16 h) it was 10 to 30 µM.

On to `Cc1cc(Cl)ccc1S(=O)(=O)N[C@H](c1nn[nH]n1)[C@H](C)c1c(F)ccc(C)c1C` [Example 25, 4-chloro-N-((1S,2R)-2-(6-fluoro-2,3-dimethylphenyl)-1-(2H-tetrazol-5-yl)propyl)-2-methylbenzenesulfonamide], for which the IC50 was in the range of 0.1 to 1 µM in assay [1] and 10 to 30 µM in assay [2] (Homo sapiens, COLO 320DM, 16 h).

In the case of `Cc1ccc(F)c([C@@H](C)[C@H](NS(=O)(=O)c2ccc(Cl)cc2CC(=O)N2CCOCC2)c2nn[nH]n2)c1C` [Example 26, 4-chloro-N-((1S,2R)-2-(6-fluoro-2,3-dimethylphenyl)-1-(2H-tetrazol-5-yl)propyl)-2-(2-morpholino-2-oxoethyl)benzenesulfonamide], the 50% inhibitory concentration (IC50) in assay [1] fell in the range of 0.1 to 1 µM; in assay [2] (Homo sapiens, COLO 320DM, 16 h) it was 50 to 100 µM.

For `Cc1ccc(F)c([C@@H](C)[C@H](NS(=O)(=O)c2ccc(Cl)cc2OC(F)F)c2nn[nH]n2)c1C` [Example 27, 4-chloro-2-(difluoromethoxy)-N-((1S,2R)-2-(6-fluoro-2,3-dimethylphenyl)-1-(2H-tetrazol-5-yl)propyl)benzenesulfonamide], the IC50 in assay [1] was not above 0.1 µM; in assay [2] (Homo sapiens, COLO 320DM, 16 h), 10 to 30 µM.

Take `Cc1ccc(F)c([C@@H](C)[C@H](NS(=O)(=O)c2c(Cl)cc(Cl)c3c2OCCN3C)c2nn[nH]n2)c1C` [Example 28, 5,7-dichloro-N-((1S,2R)-2-(6-fluoro-2,3-dimethylphenyl)-1-(2H-tetrazol-5-yl)propyl)-4-methyl-3,4-dihydro-2H-benzo[b][1,4]oxazine-8-sulfonamide]: the IC50 in assay [1] is not above 0.1 µM; in assay [2] (Homo sapiens, COLO 320DM, 16 h) it was 50 to 100 µM.

In the case of `Cc1ccc(F)c([C@@H](C)[C@H](NS(=O)(=O)c2ccc(Cl)c3c2OCCN3C)c2nn[nH]n2)c1C` [Example 29, 5-chloro-N-((1S,2R)-2-(6-fluoro-2,3-dimethylphenyl)-1-(2H-tetrazol-5-yl)propyl)-4-methyl-3,4-dihydro-2H-benzo[b][1,4]oxazine-8-sulfonamide], the IC50 in assay [1] is not above 0.1 µM; in assay [2] (Homo sapiens, COLO 320DM, 16 h), not above 10 µM.

On to `Cc1ccc(F)c([C@@H](C)[C@H](NS(=O)(=O)c2ccc(Cl)cc2OC(F)(F)F)c2nn[nH]n2)c1C` [Example 30, 4-chloro-N-((1S,2R)-2-(6-fluoro-2,3-dimethylphenyl)-1-(2H-tetrazol-5-yl)propyl)-2-(trifluromethoxy)benzenesulfonamdie], for which the IC50 in assay [1] is not above 0.1 µM; in assay [2] (Homo sapiens, COLO 320DM, 16 h), 10 to 30 µM.

In the case of `Cc1cc(S(=O)(=O)N[C@H](c2nn[nH]n2)[C@H](C)c2c(F)ccc(C)c2C)c(C)cc1Cl` [Example 31, 4-chloro-N-((1S,2R)-2-(6-fluoro-2,3-dimethylphenyl)-1-(2H-tetrazol-5-yl)propyl)-2,5-dimethylbenzenesulfonamide], the IC50 fell in the range of 1 to 5 µM in assay [1] and 50 to 100 µM in assay [2] (Homo sapiens, COLO 320DM, 16 h).

For orientation: IC50 means the concentration that gives 50% inhibition.
